Results reported in US12329755B2, “Bromodomain inhibitors to target therapy-resistant cancer” (University of Tennessee Research Foundation, priority 2019, dated 2025).

Columns and labels:
[1] = tested on: cancer cell lines (lung, synovial sarcoma, leukemia, and rhabdoid tumor cells); details: panel of cancer cell lines; cited from earlier work
GFAP = details: X16 BTICs; cited from earlier work
GBM cells [2] = assay: overall statements on GBM cell death and sensitization to TMZ; format: cell-based
Description: The syntheses of two exemplary PA BRIs, referred to herein as YH-IV-073 (or IV-073), and YH-IV-077 (or IV-077), as well as of PFI-3 (also referred to herein as YH-IV-081), are shown in Scheme 2, below. As shown in Scheme 2, commercially available tert-butyloxycarbonyl (BOC)-protected amine 1 is contacted with 2-bromopyridine (2) to form intermediate 3. The protecting group can be removed (e.g., via hydrolysis) to give the corresponding amine 4. Compound 4 can be coupled with a carboxylic acid (5, 6, or 7) to afford target YH-IV-073, YH-IV-077 and YH-IV-081, respectively. […] These analogs will provide greater insight into the importance of substitution of the A ring.
The synthetic route shown in Scheme 3, below, was used to synthesize new analogs with different substituents in the 2-position of the A-ring, such as YH-IV-085. As shown in Scheme 3, a commercially available 1-phenylprop-2-yn-1-one (e.g., 8 or 9) can be reacted with BOC-protected amine compound 1 to afford a BOC-protected intermediate (e.g., 10 or 11), which can be hydrolyzed to provide corresponding deprotected intermediate (12 or 13). The intermediates can be coupled with the 2-bromopyridine (2) to yield target compounds (e.g., 14 or YH-IV-085), respectively. YH-IV-085 is believed to be the first PFI-3 analog prepared without a 2-hydroxy moiety in the A-ring.

bromodomain of BRG1 = biological target: T1, bromodomain of BRG1 (Homo sapiens, UniProt P51532); assay: thermal shift assay of the BRG1 bromodomain in MT330 GBM cells; format: binding; details: 44.5° C. to 55.6° C.; PFI-3 30 μM, IV-073 20 μM, two hours; compared to DMSO
T1 construct: The assay involved the use of the bromodomain of BRG1 in MT330 GBM cells; expressed in transfected cells; host or cells: MT330 GBM cells
Procedure: FIG. 3 is a series of immunoblot images showing the effects of Brahma-related gene-1 bromodomain inhibitors (BRIs) on the stability of the bromodomain of Brahma-related gene-1 in a thermal assay shift of the bromodomain in glioblastoma cells over a temperature range from 44.5 degrees Celsius (° C.) to 55.6° C. Cells were treated with (middle) PFI-3 (30 micromolar (μM)) for two hours or (right), a PFI-3 analog of the presently disclosed subject matter (IV-073) (20 μM) for two hours. For comparison, control cells treated with dimethyl sulfoxide (DMSO) are shown at […].
To further study the activity of the presently disclosed PFI-3 analogs, a thermal shift assay was employed. The assay involved the use of the bromodomain of BRG1 in MT330 GBM cells at temperatures ranging from 44.5° C. to 55.6° C.

embryonic stem cell = details: cited from earlier work
X10 BTICs = details: cited from earlier work
GBM cells [3] = assay: survival of mice after intracranial injection of GBM cells; format: in vivo; details: combination with TMZ, intraperitoneal, 10 mg/kg body weight
Procedure: FIG. 6 is a graph showing the survival curves (percent survival versus days after treatment) of mice after intracranial injection of glioblastoma (GBM) cells and intraperitoneal injection of temozolomide (TMZ) or combinations of TMZ and a Brahma-related gene-1 bromodomain inhibitors (BRIs): PFI-3 or one of the presently disclosed PFI-3 analogs (PAs) IV-073 or IV-085. Five mice per group were treated with TMZ with or without the BRI (10 milligrams per kilogram (mg/kg) body weight.
TMZ with or without a BRI was also tested in mice after intercranial injection of GBM cells.

[4] = biological target: T2, GFP-tagged bromodomain of BRG1 (GFP-BRG1 BRD) (Homo sapiens, UniProt P51532); assay: nuclear localization of fluorescently tagged BRG1 bromodomain in MT330 GBM cells; format: cell-based; details: PFI-3 10 or 30 μM; IV-073 5, 10 or 30 μM; compared to DMSO
T2 construct: a fluorescently tagged bromodomain of BRG1 expressed in MT330 GBM cells; expressed in transfected cells; host or cells: MT330 GBM cells
Description: FIG. 4 is a series of fluorescence microscopy images showing the effects of Brahma-related gene-1 bromodomain inhibitors (BRIs) on the nuclear localization of a green fluorescent protein (GFP)-tagged bromodomain of Brahma-related gene-1 (GFP-BRG1 BRD).
The effects of PFI-3 and its analogs on the nuclear localization of a fluorescently tagged bromodomain of BRG1 expressed in MT330 GBM cells was studied. In the control samples, the fluorescent bromodomain is localized to the nucleus. However, an inhibitor displaces it from the nucleus and the fluorescence signal markedly decreases because it is degraded in the cytoplasm.

BTICs = details: cited from earlier work
[5] = tested on: LN229 TMZ-resistant glioma cell line; assay: IncuCyte live cell imaging proliferation assay; format: cell-based
Procedure: (§1) FIG. 2A is a graph showing relative growth of temozolomide (TMZ)-resistant glioma cells (LN229 cells) alone (control); after treatment with 100 micromolar (μM) TMZ; after treatment with a Brahma-related gene-1 bromodomain inhibitor (BRI), PFI-3 (1 μM); or after treatment with both TMZ and PFI-3 (combined).
as §1, with “2B” for “2A”, “IV-073” for “PFI-3”
as §1, with “2C” for “2A”, “LN229 Temozolomide” for “temozolomide”, “cells” for “cells (LN229 cells)”, “IV-077” for “PFI-3”
as §1, with “2D” for “2A”, “LN229 Temozolomide” for “temozolomide”, “cells” for “cells (LN229 cells)”, “IV-085” for “PFI-3”
To determine whether PFI-3 (also called YH-IV-081) and its analogs (referred to herein as “PAs”) enhanced TMZ sensitivity IncuCyte live cell imaging proliferation assays (high throughput system) were performed with the LN229 TMZ-resistant glioma cell line.

T1 sequence (P51532 1453-1564 limits assumed): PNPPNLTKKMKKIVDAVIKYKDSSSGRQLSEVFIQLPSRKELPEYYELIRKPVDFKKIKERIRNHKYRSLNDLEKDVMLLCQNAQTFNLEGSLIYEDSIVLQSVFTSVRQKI
T2 sequence (P51532 1453-1564 limits assumed): as above

O=C(/C=C/N1C[C@H]2C[C@@H]1CN2c1ccccn1)c1ccccc1O [PFI-3, (E)-1-(2-hydroxyphenyl)-3-((1R,4R)-5-(pyridin-2-yl)-2,5-diazabicyclo[2.2.1]heptan-2-yl)prop-2-en-1-one]
proliferation or tumorgenicity [1]: not to inhibit the proliferation or tumorgenicity | GFAP protein expression (GFAP): upregulated GFAP protein expression | sensitizing GBM cells to DNA alkylation by TMZ (GBM cells [2]; also in cells resistant to DNA alkylation agents): capable of sensitizing GBM cells | GBM cell death (GBM cells [2]; used alone): do not cause GBM cell death | stabilization of the BRG1 bromodomain (bromodomain of BRG1): stabilizes the BRG1 bromodomain | embryonic stem cell phenotype (embryonic stem cell): inhibits the embryonic stem cell phenotype | sensitization to Carmustine (X10 BTICs; X10 BTICs, PFI-3 treatment): sensitized | effect on X10 BTIC proliferation (X10 BTICs; combination of PFI-3 and TMZ): marked effect on X10 BTIC proliferation | animal survival (GBM cells [3]): enhanced animal survival | displacement of the BRG1 bromodomain from the nucleus [4]: displaces the BRG1 bromodomain from the nucleus | effect on BTIC proliferation (BTICs; PFI-3 alone): little effect on BTIC proliferation | stemness of BTICs (BTICs): inhibits the stemness of BTICs | sensitization of BTICs to DNA alkylating agents (BTICs; in vitro): sensitizes BTICs to DNA alkylating agents | sensitization to TMZ ([5]; BRI 1 μM combined with 100 μM TMZ): potently sensitized | effect on cell growth ([5]; BRI alone (1 μM)): relatively minor effects on cell growth
